Reference: patent US20150305372A1, “FEED INTAKE OF RUMINANTS USING GREEN FODDER FLAVORS” (BASF SE, priority 2014, published 2015)
Entries after “also recorded” stand apart in the source; their conditions may differ. Marks after values point to notes of the source that are not given here.

Test system: dairy cows having a high milk performance (German Holstein cattle)
Test: Feeding study of trans-hex-2-enal and hexanal on feed intake, feed intake behavior, milk performance and milk composition of dairy cows
Assay type: in vivo
Settings: for FMI (fresh matter intake): 4.3 g/cow/day in TMR via wheat bran premix, control 43.6; for FMI (fresh matter intake) / Milk protein yield / Milk fat yield / DMI (% of BW) / Milk protein / Milk fat / DMI / ECM (energy-corrected milk) / Milk yield / Eating period / Frequency of visits: LSQ means; for FMI (fresh matter intake) / DMI / Eating period: p < 0.05; for Milk protein yield / Milk fat yield / DMI (% of BW) / Milk protein / Milk fat / DMI / ECM (energy-corrected milk) / Milk yield / Eating period / Frequency of visits: 4.3 g/cow/day in TMR; for Milk protein yield: control 1.04; for Milk fat yield: control 1.16; for DMI (% of BW): control 3.3; for Milk protein: control 3.36; for Milk fat: control 3.69; for DMI: control 22.2; for ECM (energy-corrected milk): control 30.2; for Milk yield: control 31.6; for Eating period: control 184; for Frequency of visits: visits to feed trough per day, control 33.1, p < 0.0001; for dry matter intake (DMI) compared with the control group, in words: A vs control p<0.067, B vs control p<0.0234; for visits to the feed trough: control 33.1 visits per day; for fresh matter intake (FMI) compared with the control group, in words: p<0.0001; for more frequent visits to the feed trough than the control group: per day, versus control group
Protocol: The purpose of the present study is to establish whether 4.3 g/cow/day of trans-hex-2-enal or 4.3 g/cow/day of hexanal affect the DMI value, the milk performance, the milk composition or the feed intake behavior (duration, frequency, etc.) of dairy cows.
The start of the study was calendar week 18 of the experimental year and the end of the study was calendar week 24 of the same year. The feed consumption was determined by means of feed troughs with electronic weight determination, produced by Insentec B.V. (Marknesse, Netherlands). The system identifies each animal by scanning the respective transponder on the neck band of the respective cow using a light barrier. After identification, the animal is allowed free access to the feed trough and the amount of feed taken in on each visit to the trough is recorded automatically.
The system thus determines all visits of each cow to the feed trough, the respective feed intake and the duration of the respective visit. The feed troughs were filled once a day at about 06.30 hours in the morning with an amount of about 70 kg of feed, after the residual feed of the previous day had been removed. During the morning milking, the feed troughs were closed for cleaning for a period of 20 to 30 minutes.
The milk yield was determined individually during each milking process and recorded by the Herd Management Software DairyPlan C21 (GEA Farm Technologies, Boenen, Germany). The cows were milked twice daily at 05.00 hours in the morning and 15.30 hours in the afternoon. Fresh water was freely available at all times.
Every Monday, after each milking, milk samples were taken and, for each cow, the milk composition (fat, protein, somatic cell count) was determined. The energy-corrected milk value (ECM) was determined according to the following equation: […]
All of the cows received a total mixed ration (TMR) (table 2) having a calculated mean daily feed intake of 22 kg of dry matter (DM). Trans-hex-2-enal and hexanal were added to the TMR and thus fed by a premix with wheat bran (trans-hex-2-enal/wheat bran for group A and hexanal/wheat bran for group B).
Samples of the TMR were withdrawn daily from each of the rations, combined to form a weekly sample and frozen until determination of the DM content of the TMRs. Samples of all feed components were taken every 14 days, frozen and pooled over the entire feeding trial up until laboratory analysis.
A standard model for statistical analysis using all parameters was adapted to the weekly data. This is a general, linear, mixed model with the cow as a chance effect and containing the following co-variables:
For the treatment effect, an “overall” P value was presented, and also a P value for the differences between the groups, which were tested both adapted and also non-adapted by means of the Tukey test.

| SMILES | daily FMI value, mean (4.3 g/cow/day) | daily milk production and milk composition compared with the control group, in words (4.3 g/cow/day) | FMI (fresh matter intake) | Milk protein yield | Milk fat yield | DMI (% of BW) | Milk protein | Milk fat | DMI | ECM (energy-corrected milk) | Milk yield | Eating period | Frequency of visits | dry matter intake (DMI) compared with the control group, in words (4.3 g/cow/day) | visits to the feed trough (4.3 g/cow/day) | fresh matter intake (FMI) compared with the control group, in words (4.3 g/cow/day) | more frequent visits to the feed trough than the control group (4.3 g/cow/day) |
| --- | --- | --- | --- | --- | --- | --- | --- | --- | --- | --- | --- | --- | --- | --- | --- | --- | --- |
| CCCCCC=O [Hexanal, hexanal] | 48.3 kg FMI per day | no differences | 48.3^b kg/d | 1.06 kg/day | 1.22 kg/day | 3.7 % of BW | 3.28% | 3.77% | 23.8^b kg/d | 31.3 kg/day | 32.7 kg/day | 212^b min | 45.2^b | significant advantage | 45.2 times per day | higher; also recorded: significantly increased | 37% |
| CCC/C=C/C=O [Trans-hex-2-enal] | – | no differences | 47.8^b kg/d | 1.06 kg/day | 1.19 kg/day | 3.6 % of BW | 3.26% | 3.66% | 23.5^ab kg/d | 31.1 kg/day | 33.1 kg/day | 206^ab min | 48.6^b | significant advantage | 48.6 times per day | higher; also recorded: significantly increased | 47% |
